Assay [1] deals with Enterobacter aerogenes. As to the kind of experiment: Minimum inhibitory concentration (MIC) procedure in agar at alkaline pH. The class given is cell-based. Conditions: Klebsiella aerogenes; pH 8.2; 48 hours at 30°C; no high water hardness; unit ppm only from method. On the procedure: The agar (nutrient agar) was dispensed in 30 ml aliquots into 25 x 200 millimeter (mm) test tubes, capped and autoclaved for 15 minutes at 115°C. The test tubes containing the agar were cooled in a water bath until the temperature of the agar was 48°C and then an appropriate amount of the one percent solution of the test compound was added (except in the controls where no test compound was added) to the respective test tubes so that final concentrations of 500, 250, 100, 50, 25, 10, 5, 2.5, 1.0 and 0 parts per million (ppm) of the test compound in the agar were obtained. The afar solutions were each mixed and poured into individual petri plates so that each petri plate contained agar having a known concentration of test compound dispersed therein. After drying for 24 hours, the petri plates were inoculated with bacteria. The inoculation with bacteria was accomplished using the following procedure. Twenty-four hour cultures of the bacteria were prepared by incubating the bacteria in tubes containing nutrient broth for 24 hours at 30°C in a shaker. Dilutions of the 24 hour culture were made so that a suspension was made, containing about 10⁸ colony forming units (CFU) per ml of suspension of bacteria. Aliquots of 0.3 ml of the above suspension were used to fill individual wells of a Steer's Replicator. The Steer's Replicator was then used to inoculate the petri plates. The petri plates were incubated at 30°C for 48 hours and then read to determine if the test compound which was incorporated into the agar prevented growth of the respective bacteria. The minimum inhibitory concentration (MIC) for each bacteria was defined as the lowest concentration of the test compound which prevented growth of that bacteria. The MIC procedure substantially as described in Example 1 was performed. High water hardness was not evaluated in this study.

For assay [2], the system named is Enterobacter aerogenes, ATCC #13048. As to the kind of experiment: Kill time evaluation (concentration that kills all cells). The class given is cell-based. Conditions: Klebsiella aerogenes, ATCC13048. On the procedure:
Hard water was prepared by sterilizing deionized water and adjusted to 500 ppm hardness and 100 ppm alkalinity by addition of 16.7 ml of sterile CaCl₂·2H₂O (36.8 g/l), 16.7 ml of sterile MgSO₄·7H₂O (12 g/l), and 5 ml of sterile NaHCO₃ (16.8 g/l) to 1 liter of water. The pH was adjusted by addition of diluted NaOH or acetic acid.
(§1) Nutrient broth containing 300 ppm total organic carbon (TOC) and 800 ppm total dissolved solids (TDS), was adjusted to pH 8.5 with NaOH and dispensed in 10 ml aliquots into 18 x 150 mm test tubes. These tubes were capped and autoclaved for 15 minutes at 121°C. Immediately before use, 50 microliters (µl) of a heat sterilized solution of 31.74 g/l MgCl₂ and 73.99 g/l CaCl₂ was added to tubes designated to contain 500 ppm hardness. The tubes with and without added hardness were readjusted to pH 8.5 by addition of appropriate amounts of a filter sterilized solution of 16.8 g/l NaHCO. One hundred and eighty and 125 µl of the NaHCO solution were added, respectively, to tubes with and without added hardness to achieve a pH of 8.5.
(§2) Unless otherwise indicated, Enterobacter aerogenes, ATCC #13048, was used as the test organism. Three 0.1 ml aliquots of a 24 hour nutrient broth culture were pipetted onto three nutrient agar plates and spread uniformly with a Petri dish spreader. After 24 hours' growth, the cells were scraped and washed off the agar surface with sterile glass rods (hockey sticks) and sterile saline solution. After vigorous mixing (vortexing) to break up clumps, the cell suspension was filtered through a sterile filter (Whatman #4) to remove residual clumps. […] Solutions with this optical density, when diluted 1:100, contained approximately 10¹⁰ CFU/ml when plated on standard nutrient agar. The exact number of organisms was determined by making serial dilutions of the cell suspension and plating them on nutrient agar plates. Each of the serial dilution tubes was also streaked on a nutrient agar plate. These streaks of known concentrations of organisms were then used as controls to determine the number of organisms in the test samples.
(§3) Just prior to the addition of the test compounds, 0.1 ml of the cell suspension containing approximately 10¹⁰ cells/ml was added to the prepared broth tubes. Solutions of 0.1 percent weight/weight (w/w) of experimental compound were prepared immediately before use. Appropriate amounts of these solutions were added to achieve final concentrations of 100, 50, 25, 10, 5 ppm of active ingredient in broth tubes both with and/or without hardness. The tubes were then incubated at 30°C. After three and/or 24 hours, dilutions of the broth tubes were made by addition of 0.1 ml of the broth into 9.9 ml of 0.85 percent saline containing 100 ppm NaHSO₃. From the saline tube the samples were streaked with cotton swabs onto nutrient agar plates which also contained 100 ppm NaHSO₃.
(§4) The plates were incubated for 24 hours and then read. The number of organisms present in the broth tubes was determined by comparing these plates to the control plates of the serial dilution tubes.
Dilute (1/10) nutrient broth was prepared according to standard methods known in the art and then adjusted to a variety of pH's by the addition of NaOH and HCl. The Kill Time Procedure substantially similar to that described in Example 2 was performed. High water hardness was not evaluated in this study.
The Kill Time Evaluation substantially similar to that described in Example 2 was performed.

The test system of assay [3] is Aspergillus niger. As to the kind of experiment: Kill time procedure against fungus, malt yeast agar. The class given is cell-based. The conditions noted are these: pH of 8.2 to 8.3, read-out: Ppm of Compound that Resulted in Kill of All Cells at Various Times. The procedure:
as §1, §2, §3, §4
The kill time procedure substantially as described in Example 2 was performed using Aspergillus niger at a pH of 8.2 to 8.3. Malt yeast agar was used instead of nutrient agar and the incubation times were extended to accommodate the slower growing fungi cells.

Assay [4] relates to algae. The assay is described as follows: Cooling tower trial versus duplicate tower without biocide. The conditions noted are these: 15 ppm added twice a week to recirculating water; pH of 8.5; hardness of 900 ppm; two week period. From the text: In comparison, the tower without any added biocide became heavily fouled with algae in the same two week period of time.
Where [5] appears, read: 3 hr, pH 8.5, hardness 500 ppm CaCo3, read-out: Ppm of the Compound that Kill all Cells.
The mark [6] stands for this setting: 24 hr, pH 8.5, hardness 500 ppm CaCo3, read-out: Ppm of the Compound that Kill all Cells.

The structures appear in SMILES notation. In brackets after ≈: the same amount, converted by molar mass. Read-outs that look alike come from different tables or passages of the source.

Seven compounds from patent EP0266828B1, “Control of biofouling with certain alkylthioalkylamines” (THE DOW CHEMICAL COMPANY, priority 1986, dated 1988) can be followed below.

What is called MIC is the lowest concentration found to suppress growth. Low values mean a more susceptible organism, high ones a less susceptible organism. For the compound `CCCCCCSCCN` [n-hexylthioethylamine], the MIC in assay [1] lay in the range of 250 to 500 µg/mL (≈ 1550 to 3100 µM). Further, the MBC in assay [2] (setting [5]) was found to be 500 µg/mL (≈ 3100 µM); in assay [2] (setting [6]), 250 µg/mL (≈ 1550 µM).

In assay [1], `CCCCCCCCCCCCCCSCCN` [n-tetradecylthioethylamine] registered an MIC greater than 500 µg/mL. Also, the MBC in assay [2] (setting [5]) and in assay [2] (setting [6]) was greater than 500 µg/mL each time.

In turn, `CCCCCCCCCSCCN` [n-nonylthioethylamine] came in with a minimal inhibitory concentration (MIC) in assay [1] of 25 µg/mL (≈ 123 µM).

Consider `CCCCCCCCSCCN` [n-octylthioethylamine], for which the MIC in assay [1] worked out at 25 µg/mL (≈ 132 µM). Besides, the MBC in assay [2] (setting [5]) stood at 150 µg/mL (≈ 792 µM); in assay [2] (setting [6]) it was 75 µg/mL (≈ 396 µM). Also, the MFC in assay [3] (pH 8.2, 3 hr.) worked out at 50 µg/mL (≈ 264 µM); in assay [3] (pH 8.2, 6 hr.) it was 25 µg/mL (≈ 132 µM); in assay [3] (pH 8.2, 24 hr.) it was 10 µg/mL (≈ 52.8 µM).

`CCCCCCCCCCCSCCN` [n-undecylthioethylamine] gave an MIC in assay [1] of 50 µg/mL (≈ 216 µM).

Regarding `CCCCCCCCCCSCCN` [n-decylthioethylamine], in assay [1], the MIC was 10 to 25 µg/mL (≈ 46 to 115 µM). In addition, the MBC in assay [2] (setting [5]) was determined as 20 µg/mL (≈ 92 µM); in assay [2] (setting [6]), 40 µg/mL (≈ 184 µM); in assay [2] (pH 5, 3 hours, dilute (1/10) nutrient broth, no high water hardness, read-out: Concentration (ppm) of DTEA That Kills all Cells in 3 Hours), 50 µg/mL (≈ 230 µM); in assay [2] (pH 6, 3 hours, dilute (1/10) nutrient broth, no high water hardness, read-out: Concentration (ppm) of DTEA That Kills all Cells in 3 Hours), 50 µg/mL (≈ 230 µM); in assay [2] (pH 7, 3 hours, dilute (1/10) nutrient broth, no high water hardness, read-out: Concentration (ppm) of DTEA That Kills all Cells in 3 Hours), 20 µg/mL (≈ 92 µM); in assay [2] (pH 8, 3 hours, dilute (1/10) nutrient broth, no high water hardness, read-out: Concentration (ppm) of DTEA That Kills all Cells in 3 Hours) it was 10 µg/mL (≈ 46 µM). The MBC in assay [2] (pH 9, 3 hours, dilute (1/10) nutrient broth, no high water hardness, read-out: Concentration (ppm) of DTEA That Kills all Cells in 3 Hours) is 5 µg/mL (≈ 23 µM); in assay [2] (pH 10, 3 hours, dilute (1/10) nutrient broth, no high water hardness, read-out: Concentration (ppm) of DTEA That Kills all Cells in 3 Hours) it was no more than 5 µg/mL; in assay [2] (pH 11, 3 hours, dilute (1/10) nutrient broth, no high water hardness, read-out: Concentration (ppm) of DTEA That Kills all Cells in 3 Hours), no more than 5 µg/mL; in assay [2] (pH 12, 3 hours, dilute (1/10) nutrient broth, no high water hardness, read-out: Concentration (ppm) of DTEA That Kills all Cells in 3 Hours), no more than 5 µg/mL. Also, the MFC in assay [3] (pH 8.2, 3 hr.) is 3.5 µg/mL (≈ 16.1 µM); in assay [3] (pH 8.2, 6 hr.), 0.5 to 3.5 µg/mL (≈ 2.3 to 16.1 µM); in assay [3] (pH 8.2, 24 hr.), 0.1 µg/mL (≈ 0.46 µM). In addition, in assay [4], the “growth of algae in the treated tower or basin” value is given as “prevent the growth of any algae”.

In turn, `CCCCCCCCCCCCSCCN` [n-dodecylthioethylamine] gave an MIC in assay [1] of 50 to 100 µg/mL (≈ 204 to 407 µM). Moreover, the MBC came to 50 µg/mL (≈ 204 µM) in assay [2] (setting [5]) and 150 µg/mL (≈ 611 µM) in assay [2] (setting [6]).
